Values quoted from earlier work in patent publication US10195257B2 (Qantu Therapeutics, Inc., priority 2013, dated 2019).

Tests used:
OVA-specific CTLs = conditions: mice immunized with OVA plus adjuvant
Aβ = conditions: without any adjuvant, administered intra-nasally
T cells = conditions: in vivo

## QS-21
OVA-specific CTLs
  immune response type and CTL production: Th1 immune response with the concomitant production of OVA-specific CTLs

## Aβ40: main Aβ peptide that contains amino acid residues from 1 to 40
Aβ
  immune response and Aβ plaques: Th2 immune response and reduced levels of Aβ plaques

## O=Cc1c(O)cccc1OCc1ccc(C(=O)O)cc1 [tucaresol, 4-(2-formyl-3-hydroxyphenoxymethylbenzoic acid)]
T cells
  type of immunity favored: favors a Th1-biased immunity with a Th1-type cytokine profile and concomitant CTL production
